Reference: patent US8084064B2, “Antiwrinkle agent and skin cosmetic composition” (Kao Corporation, priority 2004, dated 2011)
Entries after “also recorded” stand apart in the source; their conditions may differ.

Tested on: Hartley guinea pigs (females)
Experiment: Safety (sensitization) maximization test
Assay type: in vivo, guinea pig
Settings: for MR: Mean score (average of reaction scores): erythema score 0-3
Description: Safety (sensitization) was evaluated using a maximization test.
An area of the skin over the scapula measuring 4×6 cm^2 was shaved in Hartley guinea pigs (females) having body weights of 350 to 400 g, and two rows of three intradermal injections per row were made in the order indicated below.
1) 0.05 mL aliquots of Freund's complete adjuvant (hereinafter, to abbreviated as FCA solution) were intradermally injected at two locations on the left and right sides.
2) 0.05 mL aliquots of an olive oil solution containing 10% of a sclareol derivative obtained in the aforementioned producing examples or sclareol were intradermally injected at two locations on the left and right sides.
3) 0.05 mL aliquots of an emulsified solution obtained by adding an equal volume of sterile water to an FCA solution containing 20% sclareol or sclareol derivative obtained in the aforementioned production examples were intradermally injected at two locations on the left and right sides.
The same sites on the animals were shaved one week after these procedures, and vaseline containing 10% sodium lauryl sulfate was rubbed onto the skin to induce mild inflammation. 24 hours after rubbing, 0.2 mL of olive oil solutions containing 10% sclareol derivative sample of the present invention or sclareol were applied to a piece of gauze, which was then affixed to cover the skin for 48 hours. The abdomens of the animals were shaved on the 21st day after intradermal injection, and olive oil solutions containing 5% and 10% of a sclareol derivative sample of the present invention, or an olive oil solution containing 5% of a sclareol sample were affixed to cover the skin for 24 hours.

[1] = challenge concentration 5% in olive oil, After 24 Hours
[2] = challenge concentration 5% in olive oil, After 48 Hours
[3] = challenge concentration 10% in olive oil, After 24 Hours
[4] = challenge concentration 10% in olive oil, After 48 Hours

| Compound | PR: Sensitization rate (Number of positive animals/Number of animals used) [1] | MR: Mean score (average of reaction scores) [1] | PR: Sensitization rate (Number of positive animals/Number of animals used) [2] | MR: Mean score (average of reaction scores) [2] | PR: Sensitization rate (Number of positive animals/Number of animals used) [3] | MR: Mean score (average of reaction scores) [3] | PR: Sensitization rate (Number of positive animals/Number of animals used) [4] | MR: Mean score (average of reaction scores) [4] | Sensitization (result in words) (maximization test, guinea pigs) |
| --- | --- | --- | --- | --- | --- | --- | --- | --- | --- |
| C=C[C@@](C)(CC[C@@H]1[C@@]2(C)CCCC(C)(C)[C@@H]2CC[C@@]1(C)OC(C)=O)OC(C)=O [Diacetylated sclareol, diacetylated sclareol] | 0, (0) | 0, (0) | 0, (0) | 0, (0) | 0, (0) | 0, (0) | 0, (0) | 0, (0) |  |
| C=C[C@@](C)(O)CCC1[C@@]2(C)CCCC(C)(C)C2CC[C@@]1(C)O (some centres unmarked) [Sclareol, sclareol, reference compound] | 4/10 | 0.4 | 4/10 | 0.4 |  |  |  |  | has skin sensitizing properties; also recorded: sensitization being confirmed |
| monoacetylated sclareol | 0, (0) | 0, (0) | 0, (0) | 0, (0) | 0, (0) | 0, (0) | 0, (0) | 0, (0) |  |
| CC[C@](C)(O)CCC1[C@@]2(C)CCCC(C)(C)C2CC[C@@]1(C)O (some centres unmarked) [Hydrogenated sclareol, hydrogenated sclareol] | 0, (0) | 0, (0) | 0, (0) | 0, (0) | 0, (0) | 0, (0) | 0, (0) | 0, (0) |  |
